# Reference: the supplement of paper PMC10949913
# What was measured:
# Conditions in all cases: 48 h
# CU-ACC2 [1] = assay: area under concentration-response curve (viability) (AUC (a.u.)); higher = less active
# In short: (§1)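 Three adrenocortical carcinoma cell lines were plated in 1,536-well plates at 500–1,000 cells/well in 5 µL medium, and 23 nL of each library compound was added at 11 concentrations. After 48 h, CellTiter-Glo was applied for 15 minutes at room temperature before luminescence was read. Each plate's signals were normalised to vehicle and empty-well controls. AC50 and area under the curve were taken from fitted concentration-response curves, with only inhibitory or non-responding curve classes retained.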
# CU-ACC1 [2] = assay: as above
# In short: as §1
# CU-ACC2 [3] = assay: AC50 viability; higher = less potent
# In short: as §1
# CU-ACC1 [4] = assay: AC50 viability; higher = less potent
# In short: as §1
# NCI-H295R [5] = assay: area under concentration-response curve (viability) (AUC (a.u.)); higher = less active
# In short: as §1
# NCI-H295R [6] = assay: AC50 viability; higher = less potent
# In short: as §1
SMILES,area under concentration-response curve (CU-ACC2 [1]),area under concentration-response curve (CU-ACC1 [2]),AC50 viability (CU-ACC2 [3]),AC50 viability (CU-ACC1 [4]),area under concentration-response curve (NCI-H295R [5]),AC50 viability (NCI-H295R [6])
Oc1ccc2ccccc2c1SSc1c(O)ccc2ccccc12,583,487,23.5 µM,41.7 µM,,
CN\1C(=O)/C(=C(\N=C1NC[C@@H](N)CC2=CC=CC=C2)C3=CC=NC=C3)C4=CC5=C(C=CC=C5)C=C4,571,484,37.2 µM,29.5 µM,,
CCCNCC(O)COc1ccccc1C(=O)CCc1ccccc1 (configuration not stated),451,417,23.5 µM,23.5 µM,,
CC(O)c1cc(C(=O)N[C@@H](C)Cn2ccc(-c3ccc(C#N)c(Cl)c3)n2)n[nH]1 (some centres not stated),488,454,20.9 µM,33.2 µM,,
CC(C)(C)C[C@H]1N[C@@H](C(=O)N[C@H]2CC[C@H](O)CC2)[C@H](c2cccc(Cl)c2F)[C@@]12C(=O)Nc1cc(Cl)ccc12,461,473,23.5 µM,1.48 µM,,
O=C(CC12CC3CC(CC(C3)C1)C2)Nc1cccc2nc(NCCNCCO)ccc12,537,473,23.5 µM,26.3 µM,,
CC(C)Nc1cc(-c2c[nH]c(C(=O)N[C@H](CO)c3cccc(Cl)c3)c2)c(Cl)cn1,545,467,18.6 µM,23.5 µM,,
CC(C)(O)CC[C@@H](O)[C@](C)(O)[C@H]1CC[C@@]2(O)C/3=C/C(=O)[C@@H]4C[C@@H](O)[C@@H](O)C[C@]4(C)[C@H]3CC[C@]12C,233,192,0.372 µM,0.132 µM,,
COC1=CC(c2cc3ccccc3[nH]2)=N/C1=C/c1[nH]c(C)cc1C,495,410,33.2 µM,37.2 µM,,
COc1cc2c(N3CCN(C(=O)Nc4ccc(OC(C)C)cc4)CC3)ncnc2cc1OCCCN1CCCCC1,457,401,7.42 µM,16.6 µM,,
Cc1cc(Nc2nc(N[C@@H](C)c3ccc(F)cc3)c(C#N)cc2F)n[nH]1,467,516,20.9 µM,18.6 µM,,
CN[C@@H](C)C(=O)N[C@H]1CCCC[C@H]2CC[C@@H](C(=O)N[C@@H](c3ccccc3)c3cn(CCCCc4ccc(CCCCn5cc([C@@H](NC(=O)[C@@H]6CC[C@@H]7CCCC[C@H](NC(=O)[C@H](C)NC)C(=O)N76)c6ccccc6)nn5)cc4)nn3)N2C1=O,303,260,0.332 µM,0.166 µM,,
COc1cc(F)c(F)c(Nc2ccc(I)cc2F)c1N[S+](=O)([O-])C1(C[C@H](O)CO)CC1,476,421,6.61 µM,16.6 µM,,
COc1cccc([C@@H](C)NCCCc2ccccc2Cl)c1,584,462,23.5 µM,20.9 µM,,
COc1cc2c(cc1OC(C)C)[C@H](c1ccc(Cl)cc1)N(c1ccc(N(C)C[C@H]3CC[C@H](N4CCN(C)C(=O)C4)CC3)cc1)C(=O)C2,510,427,20.9 µM,16.6 µM,,
C[S+]([O-])c1ccc(-c2nc(-c3ccc(F)cc3)c(-c3ccncc3)[nH]2)cc1 (configuration not stated),420,393,16.6 µM,18.6 µM,,
CN1C(=O)c2sccc2N(C)c2nc(Nc3ccc([S+](N)(=O)[O-])cc3)ncc21,467,460,14.8 µM,,431,5.25 µM
COc1ccc2[nH]c3c(c2c1)CCN[C@]31CS[C@@H]2c3c(OC(C)=O)c(C)c4c(c3[C@H](COC1=O)N1[C@@H]2[C@H]2c3c(cc(C)c(OC)c3O)C[C@@H]([C@@H]1O)N2C)OCO4,187,178,0.00762 µM,,161,0.00762 µM
c1ccc2c(-c3cnn4cc(-c5ccc(N6CCNCC6)cc5)cnc34)ccnc2c1,498,434,2.95 µM,,439,2.09 µM
Cc1cc2c(C(C)C)c(O)c(O)c(C=O)c2c(O)c1-c1c(C)cc2c(C(C)C)c(O)c(O)c(C=O)c2c1O,596,529,23.5 µM,26.3 µM,,
COC1=CC=C2Nc3cc(Cl)ccc3C(N=C3C=C(CN4CCCC4)C(=O)C(CN4CCCC4)=C3)=C2N1,528,477,23.5 µM,18.6 µM,,
CC(=O)O/N=C1/C(=C2\C(=O)Nc3cc(Br)ccc32)Nc2ccccc21,561,492,9.34 µM,,525,13.2 µM
C[C@@H]1CC[C@@]2(CC[C@]3(C)\C(=C/C[C@@H]4[C@@]5(C)C[C@@H](O)[C@H](O)[C@@](C)(CO)[C@@H]5CC[C@@]34C)[C@@H]2[C@H]1C)C(O)=O,410,371,1.18 µM,,354,2.35 µM

SMILES,area under concentration-response curve (CU-ACC2 [1]),area under concentration-response curve (CU-ACC1 [2]),AC50 viability (CU-ACC2 [3]),AC50 viability (CU-ACC1 [4]),area under concentration-response curve (NCI-H295R [5]),AC50 viability (NCI-H295R [6])
O=C(CCCCCCC(=O)Nc1ccccc1)NO,474,415,3.32 µM,2.95 µM,,
CN1CCN(Cc2ccc(Nc3ncc(Cl)/c(=N\c4ccccc4[S+](=O)([O-])N(C)C)[nH]3)cc2)CC1,378,437,0.108 µM,,364,0.241 µM
O=C(c1ccc(Nc2nc(C3CC3)cn3c(-c4cn[nH]c4)cnc23)c(F)c1)N1CCOCC1,343,366,14.8 µM,3.32 µM,,
C=C1C(=O)[C@@]23C(CC[C@@H]1[C@H]2O)[C@@]12CO[C@]3(O)[C@@H](O)[C@@H]1C(C)(C)CC[C@@H]2O (some centres not stated),551,486,11.8 µM,,529,18.6 µM
CN1CCN(c2ccc(C(=O)Nc3n[nH]c4ccc(Cc5cc(F)cc(F)c5)cc34)c(NC3CCOCC3)c2)CC1,470,470,5.25 µM,,434,5.9 µM
CC/C(=C(/c1ccc(O)cc1)c1ccc(OCCNC)cc1)c1ccccc1,403,393,9.34 µM,,359,7.42 µM
OC1=CC2=C(C(=C1)O)C(=O)\C=C(/O2)C3=CC=CC=C3,416,397,1.66 µM,,437,0.263 µM
COc1ccc([S+](=O)([O-])N(C(C)=O)c2ccccc2/C=C/c2cc[n+]([O-])cc2)cc1,557,482,20.9 µM,,506,5.25 µM
O=C1Nc2cc(Br)ccc2/C1=C1/Nc2ccccc2/C1=N\O,515,480,18.6 µM,,511,23.5 µM
O=C(NOCC1CC1)c1ccc(F)c(F)c1Nc1ccc(I)cc1Cl,527,485,16.6 µM,13.2 µM,,
CC(C)(C)C(=O)OCOP(=O)(COCCn1cnc2c(N)ncnc21)OCOC(=O)C(C)(C)C,527,456,7.42 µM,8.33 µM,,
N[S+](=O)([O-])c1cccc2c1C(=O)c1cccc(O)c1C2=O,380,315,0.661 µM,,370,0.661 µM
NCC(=O)NC1=CC(=CN=C1)\C2=N\N/3C(=O)\C=C(/N=C3S2)N4CCNCC4,254,269,0.0934 µM,,143,0.00417 µM
Cn1c2ccccc2c2c3c(c4c5ccccc5n(CCC#N)c4c21)CNC3=O,535,401,16.6 µM,,503,14.8 µM
Nc1nc(N)c(N=O)c(OCC2CCCCC2)n1,492,466,20.9 µM,,451,9.34 µM
CCCCC(C)(C)[C@H](O)/C=C/[C@H]1[C@H](O)CC(=O)[C@@H]1C/C=C\CCCC(=O)O,307,325,0.105 µM,,211,0.00372 µM
C/C=C/C/C=C/CCC(=O)[C@H]1O[C@H]1C(N)=O,554,474,23.5 µM,20.9 µM,,
NC(=O)Nc1sc(-c2ccc(F)cc2)cc1C(N)=O,559,511,8.33 µM,,485,5.9 µM
N[S+](=O)([O-])OC[C@@H]1C[C@@H](n2ccc3c(N[C@H]4CCc5ccccc54)ncnc32)C[C@@H]1O,360,467,0.468 µM,,468,1.66 µM
Oc1cccc(-c2nc(N3CCOCC3)c3oc4ncccc4c3n2)c1,427,401,0.332 µM,,404,2.09 µM
Clc1ccc(C(Cn2ccnc2)OCc2c(Cl)cccc2Cl)c(Cl)c1 (configuration not stated),525,371,18.6 µM,,473,20.9 µM
O=C(Nc1ccc([N+](=O)[O-])cc1Cl)c1cc(Cl)ccc1O,471,411,1.48 µM,,481,1.48 µM
